According to US6087355A, “Cephalosporin antibiotics” (Microcide Pharmaceuticals, Inc., priority 1996, dated 2000):
Structures can show the parent of a compound that is named as a salt.

Assays:
Assay in all cases: In vitro MIC, agar dilution
Assay type in all cases: cell-based
[1] = system: E. coli ATCC 25992; conditions: Escherichia coli, ATCC25992, read-out: minimum inhibitory concentration (MIC)
Outline: (§1)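 Spots of about 10^4 cfu of log-phase culture were applied, and plates were incubated 16-20 h at 35-36 °C. MIC was the lowest concentration inhibiting growth.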

[2] = system: E. faecalis ATCC 29212; conditions: Enterococcus faecalis, ATCC29212, read-out: minimum inhibitory concentration (MIC)
Outline: as §1

[3] = system: E. faecalis VanB(Van^R); conditions: Enterococcus faecalis, read-out: minimum inhibitory concentration (MIC)
Outline: as §1

[4] = system: E. faecium A491(Amp^R); conditions: Enterococcus faecium, read-out: minimum inhibitory concentration (MIC)
Outline: as §1

[5] = system: E. faecium ATCC 35667; conditions: Enterococcus faecium, ATCC35667, read-out: minimum inhibitory concentration (MIC)
Outline: as §1

[6] = system: E. faecium VanA(Van^R); conditions: Enterococcus faecium, read-out: minimum inhibitory concentration (MIC)
Outline: as §1

[7] = system: P. aeruginosa ATCC 27853; conditions: Pseudomonas aeruginosa, ATCC27853, read-out: minimum inhibitory concentration (MIC)
Outline: as §1

[8] = system: S. aureus 76(Meth^R)(lac^+); conditions: Staphylococcus aureus, read-out: minimum inhibitory concentration (MIC)
Outline: as §1

[9] = system: S. aureus ATCC 13709(Meth^S); conditions: Staphylococcus aureus, ATCC13709, S. aureus ATCC 13709(Meth^S); read-out: minimum inhibitory concentration (MIC)
Outline: as §1

[10] = system: S. aureus ATCC 29213; conditions: Staphylococcus aureus, ATCC29213, read-out: minimum inhibitory concentration (MIC)
Outline: as §1

[11] = system: S. aureus ATCC 33593(Meth^R); conditions: Staphylococcus aureus, ATCC33593, read-out: minimum inhibitory concentration (MIC)
Outline: as §1

[12] = system: S. aureus PC1(Meth^S)(lac^+); conditions: Staphylococcus aureus, read-out: minimum inhibitory concentration (MIC)
Outline: as §1

[13] = system: S. aureus Spain #356(Meth^R); conditions: Staphylococcus aureus, read-out: minimum inhibitory concentration (MIC)
Outline: as §1

[14] = system: S. haemolyticus 05(Meth^R); conditions: Staphylococcus haemolyticus, read-out: minimum inhibitory concentration (MIC)
Outline: as §1

[15] = system: S. aureus Col(Meth^R)(lac^-); conditions: Staphylococcus aureus, read-out: minimum inhibitory concentration (MIC)
Outline: (§2)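 Two-fold dilutions (128 to ≤0.25 μg/mL, in duplicate) were poured into Mueller-Hinton agar. Log-phase broth cultures were spot-inoculated at about 10^4 cfu per spot and incubated 35-36°C for 16-20 hours; the MIC was the lowest concentration inhibiting growth. Col is a high-level PBP2a producer; Col 8A is its isogenic PBP2a-lacking partner.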

[16] = system: S. aureus Col8A(Meth^S)(lac^-); conditions: Staphylococcus aureus; S. aureus Col8A(Meth^S)(lac^-); read-out: minimum inhibitory concentration (MIC)
Outline: as §2

Row | SMILES | MIC [1] | MIC [2] | MIC [3] | MIC [4] | MIC [5] | MIC [6] | MIC [7] | MIC [8] | MIC [9] | MIC [10] | MIC [11] | MIC [12] | MIC [13] | MIC [14] | MIC [15] | MIC [16]
1 | NCCSCc1nnsc1SC1=C(C(=O)O)N2C(=O)[C@@H](NC(=O)Cc3ccccc3)[C@H]2SC1.O=C(O)C(F)(F)F [Cmpd 37, (7R)-7-[(phenylacetyl)amino]-3-(4-(2-aminoethylthiomethyl)-1,2,3-thiadiazol-5-ylthio)-3-cephem-4-carboxylate, trifluoroacetic acid salt] | > 32 µg/mL | 0.25 µg/mL | 0.5 µg/mL | > 32 µg/mL | 0.5 µg/mL | 2 µg/mL | > 32 µg/mL | 4 µg/mL | ≤ 0.06 µg/mL | 0.5 µg/mL | 16 µg/mL | 1 µg/mL | 8 µg/mL | 8 µg/mL | 0.5 µg/mL | ≤ 0.06 µg/mL
2 | NCCSCc1cnccc1SC1=C(C(=O)O)N2C(=O)[C@@H](NC(=O)/C(=N\O)c3nc(N)sc3Br)[C@H]2SC1.O=C(O)C(F)(F)F [Cmpd 21, (7R)-7-[(Z)-2-(2-amino-5-bromothiazol-4-yl)-2-(hydroxyimino)acetamido]-3-(3-aminoethylthiomethylpyrid-4-ylthio)-3-cephem-4-carboxylate, trifluoroacetic acid salt] | 32 µg/mL | 0.13 µg/mL | 0.13 µg/mL | 8 µg/mL | 0.5 µg/mL | 1 µg/mL | > 32 µg/mL | 1 µg/mL | 1 µg/mL | 0.25 µg/mL | 1 µg/mL | 0.5 µg/mL | 1 µg/mL | 2 µg/mL | 1 µg/mL | 0.25 µg/mL
3 | Nc1nc(/C(=N/O)C(=O)N[C@@H]2C(=O)N3C(C(=O)O)=C(Sc4ccncc4CSC4CCNCC4)CS[C@H]23)c(Cl)s1 [Cmpd 52, (7R)-7-[(Z)-2-(2-amino-5-chlorothiazol-4-yl)-2-(hydroxyimino)acetamido]-3-(3-(piperidine-4-ylthiomethyl)pyrid-4-ylthio)-3-cephem-4-carboxylate, trifluoroacetic acid salt] | 2 µg/mL | ≤ 0.06 µg/mL | 0.13 µg/mL | 4 µg/mL | ≤ 0.06 µg/mL | 1 µg/mL | > 32 µg/mL | 2 µg/mL | 0.5 µg/mL | 0.5 µg/mL | 2 µg/mL | 0.5 µg/mL | 2 µg/mL | 2 µg/mL | 2 µg/mL | 0.25 µg/mL
4 | NCC[S+]([O-])Cc1cnccc1SC1=C(C(=O)O)N2C(=O)[C@@H](NC(=O)/C(=N\O)c3nc(N)sc3Cl)[C@H]2SC1 (stereo partly drawn) [Cmpd 53, (7R)-7-[(Z)-2-(2-amino-5-chlorothiazol-4-yl)-2-(hydroxyimino)acetamido]-3-(3-aminoethylsulfinylmethylpyrid-4-ylthio)-3-cephem-4-carboxylate, trifluoroacetic acid salt] | 4 µg/mL | 0.13 µg/mL | 0.25 µg/mL | 16 µg/mL | 1 µg/mL | 2 µg/mL | > 32 µg/mL | 4 µg/mL | 0.25 µg/mL | 0.5 µg/mL | 2 µg/mL | 1 µg/mL | 4 µg/mL | 4 µg/mL | 4 µg/mL | 0.5 µg/mL
5 | CNCC(=O)NCCSCc1cnccc1SC1=C(C(=O)O)N2C(=O)[C@@H](NC(=O)/C(=N\O)c3nc(N)sc3Cl)[C@H]2SC1 [Cmpd 43, (7R)-7-[(Z)-2-(2-amino-5-chlorothiazol-4-yl)-2-(hydroxyimino)acetamido]-3-[3-(N-methylglycyl)aminoethylthiomethylpyrid-4-ylthio]-3-cephem-4-carboxylate, trifluoroacetic acid salt] | 8 µg/mL | 0.13 µg/mL | 0.25 µg/mL | 8 µg/mL | 1 µg/mL | 1 µg/mL | > 32 µg/mL | 2 µg/mL | 0.5 µg/mL | 0.5 µg/mL | 2 µg/mL | 1 µg/mL | 2 µg/mL | 4 µg/mL | 2 µg/mL | 0.5 µg/mL
6 | NCCSCc1nnsc1SC1=C(C(=O)O)N2C(=O)[C@@H](NC(=O)/C(=N\O)c3csc(N)n3)[C@H]2SC1 [Cmpd 38, (7R)-7-[(Z)-2-(aminothiazol-4-yl)-2-(hydroxyimino)acetamido]-3-(4-(2-aminoethylthiomethyl)-1,2,3-thiadiazol-5-ylthio)-3-cephem-4-carboxylate, trifluoroacetic acid salt] | 2 µg/mL | 0.13 µg/mL | 0.13 µg/mL | > 32 µg/mL | 1 µg/mL | 2 µg/mL | > 32 µg/mL | 1 µg/mL | 0.13 µg/mL | 0.13 µg/mL | 1 µg/mL | 0.25 µg/mL | 1 µg/mL | 2 µg/mL | 1 µg/mL | 0.13 µg/mL
7 | Nc1nc(/C(=N/O)C(=O)N[C@@H]2C(=O)N3C(C(=O)O)=C(Sc4ccncc4CSCCNC=O)CS[C@H]23)c(Cl)s1 [Cmpd 63, (7R)-7-[(Z)-2-(2-amino-5-chlorothiazol-4-yl)-2-(hydroxyimino)acetamido]-3-(3-(N-formylaminoethylthiomethyl)pyrid-4-ylthio)-3-cephem-4-carboxylate, trifluoroacetic acid salt] | 16 µg/mL | 0.13 µg/mL | 0.25 µg/mL | 16 µg/mL | 0.5 µg/mL | 1 µg/mL | > 32 µg/mL | 2 µg/mL | 0.25 µg/mL | 0.25 µg/mL | 2 µg/mL | 0.25 µg/mL | 4 µg/mL | 2 µg/mL | 2 µg/mL | 0.13 µg/mL
8 | N=C(N)SCc1ncsc1SC1=C(C(=O)O)N2C(=O)[C@@H](NC(=O)/C(=N\O)c3csc(N)n3)[C@H]2SC1 [Cmpd 7, (7R)-7-[(Z)-2-(aminothiazol-4-yl)-2-(hydroxyimino)acetamido]-3-(4-isothioureidomethylthiazol-5-ylthio)-3-cephem-4-carboxylate, trifluoroacetic acid salt] | 4 µg/mL | 1 µg/mL | 2 µg/mL | > 32 µg/mL | 4 µg/mL | 16 µg/mL | > 32 µg/mL | 8 µg/mL | 0.5 µg/mL | 0.5 µg/mL | 8 µg/mL | 2 µg/mL | 8 µg/mL | 32 µg/mL | 8 µg/mL | 0.5 µg/mL
9 | CN(C)C(=O)[C@@H]1CC(SCc2cnccc2SC2=C(C(=O)O)N3C(=O)[C@@H](NC(=O)/C(=N\O)c4nc(N)sc4Cl)[C@H]3SC2)CN1 (stereo partly drawn) [Cmpd 55, (7R)-7-[(Z)-2-(2-amino-5-chlorothiazol-4-yl)-2-(hydroxyimino)acetamido]-3-(3-(5S-5-N,N-dimethylcarboxamidopyrrolidin-3-ylthiomethyl)pyrid-4-ylthio)-3-cephem-4-carboxylate, trifluoroacetic acid salt] | 8 µg/mL | 0.25 µg/mL | 0.5 µg/mL | 16 µg/mL | 0.5 µg/mL | 2 µg/mL | > 32 µg/mL | 4 µg/mL | 0.25 µg/mL | 0.5 µg/mL | 2 µg/mL | 1 µg/mL | 4 µg/mL | 4 µg/mL | 4 µg/mL | 0.5 µg/mL
10 | N=CNCCCSCc1cnccc1SC1=C(C(=O)O)N2C(=O)[C@@H](NC(=O)/C(=N\O)c3nc(N)sc3Cl)[C@H]2SC1 [Cmpd 34, (7R)-7-[(Z)-2-(2-amino-5-chlorothiazol-4-yl)-2-(hydroxyimino)acetamido]-3-(3-(3-N-formamidoylaminopropylthiomethyl)pyrid-4-ylthio)-3-cephem-4-carboxylate, trifluoroacetic acid salt] | 4 µg/mL | ≤ 0.06 µg/mL | ≤ 0.06 µg/mL | 4 µg/mL | 0.25 µg/mL | 0.5 µg/mL | > 32 µg/mL | 1 µg/mL | ≤ 0.06 µg/mL | ≤ 0.06 µg/mL | 1 µg/mL | 0.13 µg/mL | 1 µg/mL | 2 µg/mL | 1 µg/mL | ≤ 0.06 µg/mL
